From patent US7138399B2, “Alkoxypyridine-derivatives” (Altana Pharma AG, priority 2002, dated 2006)

Experiments:
[1] = target: human inducible NO-synthase (Homo sapiens, UniProt P35228); assay: Measurement of inducible NO-synthase activity ([3H]arginine conversion); type: biochemical; settings: crude cytosolic fraction containing human inducible NO-synthase, arginine 0.1 μM, 45 to 60 min at 37° C.; for IC50: read-out: Inhibition of iNOS activity [measured as −logIC50 (mol/l)] (converted)
Method: Measurement of Inducible NO-Synthase Activity
The assay is performed in 96-well microtiter F-plates (Greiner, Frickenhausen, FRG) in a total volume of 100 μl in the presence of 100 nM calmodulin, 226 μM CaCl2, 477 μM MgCl2, 5 μM flavin-adenine-dinucleotide (FAD), 5 μM flavin mononucleotide (FMN), 0.1 mM NADPH, 7 mM glutathione, 10 μM BH4 and 100 mM HEPES pH 7.2. Arginine concentrations are 0.1 μM for enzyme inhibition experiments. 150000 dpm of [^3H]arginine are added to the assay mixture. Enzyme reaction is started by the addition of 4 μg of a crude cytosolic fraction containing human inducible NO-synthase and the reaction mixture is incubated for 45 to 60 min at 37° C. Enzyme reaction is stopped by adding 10 μl of 2M MES-buffer pH 5.0. 50 μl of the incubation mixture are transferred into a MADP N65 filtration microtiter plate (Millipore, Eschborn, FRG) containing already 50 μl of AG-50W-X8 cation exchange resin (Biorad, München, FRG). The resin in the Na loaded form is pre-equilibrated in water and 70 μl (corresponding to 50 μl dry beads) are pipetted under heavy stirring with a 8 channel pipette into the filtration plate. After pipetting 50 μl of the enzyme reaction mixture onto the filtration plates, the plates are placed on a filtration manifold (Porvair, Shepperton, UK) and the flow through is collected in Pico scintillation plates (Packard, Meriden, Conn.). […] The total flow through of 125 μl is mixed with 175 μl of Microscint-40 scintillation cocktail (Packard) and the scintillation plate is sealed with TopSeal P-foil (Packard). Scintillation plates are counted in a szintillation counter.
For the measurement of inducible NO-synthase-inhibiting potencies of compounds increasing concentrations of inhibitors were included into the incubation mixture. IC50-values were calculated from the percent inhibition at given concentrations by nonlinear least square fitting.

Row | SMILES | IC50 [1] | Inhibition of iNOS activity [measured as −logIC50 (mol/l)] [1] | melting point
1 | COc1ccnc(CCc2nc3cc(I)cnc3[nH]2)c1 [compound 7, 2-[2-(4-Methoxypyridin-2-yl)ethyl]-6-iodo-3H-imidazo[4,5-b]pyridine] | 0.0324 µM | – | –
2 | COc1ccnc(CCc2nc3cc(C(F)(F)F)cnc3[nH]2)c1 [compound 9, 2-[2-(4-Methoxypyridin-2-yl)ethyl]-6-trifluoromethyl-3H-imidazo[4,5-b]pyridine] | 0.0891 µM | – | –
3 | COc1ccnc(CCc2nc3cc(-c4ccccc4)cnc3[nH]2)c1 [compound 10, 2-[2-(4-Methoxypyridin-2-yl)ethyl]-6-phenyl-3H-imidazo[4,5-b]pyridine] | 0.0389 µM | – | –
4 | COc1ccnc(CCc2nc3cc(C)cnc3[nH]2)c1 [compound 11, 2-[2-(4-Methoxypyridin-2-yl)ethyl]-6-methyl-3H-imidazo[4,5-b]pyridine] | 0.0692 µM | – | –
5 | COc1ccnc(CCc2nc3cc(CCc4ccccc4)cnc3[nH]2)c1 [compound 14, 2-[2-(4-Methoxypyridin-2-yl)ethyl]-6-(2-phenylethyl)-3H-imidazo[4,5-b]pyridine] | 0.0457 µM | – | –
6 | COc1ccnc(CCc2nc3cc(-c4ccc(Cl)c(Cl)c4)cnc3[nH]2)c1 [compound 15, 2-[2-(4-Methoxypyridin-2-yl)ethyl]-6-(3,4-dichlorphenyl)-3H-imidazo[4,5-b]pyridine] | – | 7.33 | –
7 | COc1ccnc(CCc2nc3cc(-c4ccc(Br)cc4)cnc3[nH]2)c1 [compound 16, 2-[2-(4-Methoxypyridin-2-yl)ethyl]-6-(4-bromphenyl)-3H-imidazo[4,5-b]pyridine] | – | 7.36 | –
8 | COc1ccnc(CCc2nc3cc(-c4ccc(C)cc4)cnc3[nH]2)c1 [compound 25, 2-[2-(4-Methoxypyridin-2-yl)ethyl]-6-p-tolyl-3H-imidazo[4,5-b]pyridine] | 0.0347 µM | – | –
9 | COc1ccnc(CCc2nc3cc(-c4cccnc4)cnc3[nH]2)c1 [compound 26, 2-[2-(4-Methoxypyridin-2-yl)ethyl]-6-(pyridin-3-yl)-3H-imidazo-[4,5-b]pyridine] | 0.0891 µM | – | –
10 | COc1ccnc(CCc2nc3cc(-c4ccc(N)cc4)cnc3[nH]2)c1 [compound 27, 2-[2-(4-Methoxypyridin-2-yl)ethyl]-6-(4-aminophenyl)-3H-imidazo-[4,5-b]pyridine] | 0.0617 µM | – | 117 to 119 °C
11 | COc1ccnc(CCc2nc3cc(-c4ccc(O)cc4)cnc3[nH]2)c1 [compound 28, 2-[2-(4-Methoxypyridin-2-yl)ethyl]-6-(4-hydroxyphenyl)-3H-imidazo-[4,5-b]pyridine] | 0.0447 µM | – | 206 to 208 °C
12 | COc1ccnc(CCc2nc3cc(-c4ccc(N(C)C)cc4)cnc3[nH]2)c1 [compound 29, 2-[2-(4-Methoxypyridin-2-yl)ethyl]-6-(4-N,N-dimethylaminophenyl)-3H-imidazo[4,5-b]pyridine] | 0.038 µM | – | 176 to 178 °C
13 | COc1ccnc(CCc2nc3cc(-c4ccc(C(F)(F)F)cc4)cnc3[nH]2)c1 [compound 30, 2-[2-(4-Methoxypyridin-2-yl)ethyl]-6-(4-trifluormethylphenyl)-3H-imidazo[4,5-b]pyridine] | – | 7.55 | –
14 | COc1ccnc(CCc2nc3cc(-c4ccc(OC)c(OC)c4)cnc3[nH]2)c1 [compound 31, 2-[2-(4-Methoxypyridin-2-yl)ethyl]-6-(3,4-dimethoxyphenyl)-3H-imidazo[4,5-b]pyridine] | 0.0759 µM | – | 185 to 186 °C
15 | COc1ccnc(CCc2nc3cc(-c4ccc(OCc5ccccc5)cc4)cnc3[nH]2)c1 [compound 32, 2-[2-(4-Methoxypyridin-2-yl)ethyl]-6-(4-benzyloxyphenyl)-3H-imidazo[4,5-b]pyridine] | 0.0457 µM | – | 161 to 162 °C
16 | COc1ccnc(CCc2nc3cc(-c4ccc(OCc5ccccc5)c(F)c4)cnc3[nH]2)c1 [compound 33, 2-[2-(4-Methoxypyridin-2-yl)ethyl]-(4-benzyloxy-3-fluorophenyl)-3H-imidazo[4,5-b]pyridine] | – | 7.29 | –
17 | COc1ccnc(CCc2nc3cc(-c4ccc(C#N)cc4)cnc3[nH]2)c1 [compound 34, 2-[2-(4-Methoxypyridin-2-yl)ethyl]-6-(4-cyanophenyl)-3H-imidazo[4,5-b]pyridine] | 0.0339 µM | – | 241 to 242 °C
18 | COc1ccnc(CCc2nc3cc(-c4ccc(NC(C)=O)cc4)cnc3[nH]2)c1 [compound 36, N-(4-{2-[2-(4-Methoxypyridin-2-yl)ethyl]-3H-imidazo[4,5-b]pyridin-6-yl}phenyl)-acetamide] | 0.0676 µM | – | 220 to 221 °C
19 | COc1ccnc(CCc2nc3cc(-c4ccc(NS(=O)(=O)c5ccccc5)cc4)cnc3[nH]2)c1 [compound 37, N-(4-{2-[2-(4-Methoxypyridin-2-yl)ethyl]-3H-imidazo[4,5-b]pyridin-6-yl}phenyl)-benzenesulfonamide] | 0.0631 µM | – | 251 to 253 °C
